Test results: PMC4446620, “Bioactive Metabolites from Mangrove Endophytic Fungus Aspergillus sp. 16-5B” (Marine Drugs, 2015)
“Also recorded” adds a separate entry of the source.

Tests used:
[1] = target: α-glucosidase (Saccharomyces cerevisiae, UniProt P53341); assay: Assay for α-glucosidase inhibitory activity; type: biochemical; settings: for inhibitory effect against α-glucosidase compared with acarbose, in words: versus the clinical α-glucosidase inhibitor acarbose
Protocol: All of the tests for α-glucosidase inhibitory activity were according to a previously described method. […] The reaction was monitored spectrophotometrically by measuring the absorbance at 400 nm for 1-min intervals. […] The IC50 values of the compounds were calculated by nonlinear regression analysis and expressed as the mean ± SD of two distinct experiments. Kinetic parameters were determined using the Lineweaver-Burk double-reciprocal plot method at increasing concentrations of substrates and inhibitors.

Sequence of α-glucosidase (P53341 whole entry): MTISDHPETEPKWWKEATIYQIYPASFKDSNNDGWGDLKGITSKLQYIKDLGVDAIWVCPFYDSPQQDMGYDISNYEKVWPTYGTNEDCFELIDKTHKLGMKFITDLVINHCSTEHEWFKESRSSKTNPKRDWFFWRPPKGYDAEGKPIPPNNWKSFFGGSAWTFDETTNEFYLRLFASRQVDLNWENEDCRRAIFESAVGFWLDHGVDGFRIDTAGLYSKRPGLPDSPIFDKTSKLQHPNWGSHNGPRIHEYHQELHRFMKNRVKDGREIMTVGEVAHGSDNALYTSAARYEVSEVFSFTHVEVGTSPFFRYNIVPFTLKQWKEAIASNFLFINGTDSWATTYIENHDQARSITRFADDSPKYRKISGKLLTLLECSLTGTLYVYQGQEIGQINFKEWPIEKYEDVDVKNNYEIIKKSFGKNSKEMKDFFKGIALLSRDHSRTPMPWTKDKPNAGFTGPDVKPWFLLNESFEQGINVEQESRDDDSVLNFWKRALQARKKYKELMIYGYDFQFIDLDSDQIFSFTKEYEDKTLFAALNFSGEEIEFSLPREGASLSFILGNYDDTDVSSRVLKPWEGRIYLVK

Row | SMILES | melting point [°C] | α-glucosidase inhibitory activity, in words [1] | inhibitory effect against α-glucosidase compared with acarbose, in words [1] | inhibition type of α-glucosidase (kinetic analysis) ([1]; Lineweaver-Burk plot method)
1 | Cc1c(O)cc2c(c1O)C(=O)O[C@@H]2[C@H](C)O [Compound 6, pestaphthalides A] |  | moderate inhibitory activities | more potent inhibitory effects | 
2 | CC=Cc1cc2c(o1)C(=O)C(C)(OC(=O)c1c(C)cc(O)cc1O)C(O)C2 (stereo not shown) [Compound 1, aspergifuranone] | 121.1 to 121.6 |  | more potent inhibitory effects | noncompetitive inhibitor; also recorded: noncompetitive inhibition
3 | CCC[C@@]1(O)OC(=O)c2c1cc(O)c(O)c2C [Compound 4, (R)-3-demethylpurpurester A] | 201.2 to 201.9 |  |  | 

The next lines start with results.

Row | melting point [°C] | α-glucosidase inhibitory activity, in words [1] | inhibitory effect against α-glucosidase compared with acarbose, in words [1] | SMILES | inhibition type of α-glucosidase (kinetic analysis) ([1]; Lineweaver-Burk plot method)
4 | 134.2 to 134.8 |  |  | COC1(C)OC(=O)c2c(cc(O)c(C)c2O)C1=O (stereo not shown) [Compound 3] | 
5 | 174.4 to 174.9 | moderate inhibitory activities | more potent inhibitory effects | COC1(C)OC(=O)c2c(cc(O)c(C)c2O)C1O (stereo not shown) [Compound 2] | 
